Assay results: US20260014278A1, “HYBRID PEPTIDE DENDRIMER SYSTEMS AND EXTRAHEPATIC DELIVERY” (NUNTIUS THERAPEUTICS LIMITED, priority 2022, published 2026)

system: Mouse muscle cells (C2c12); test: eGFP expression (RFU/mg) in C2c12 muscle cells, muscle-targeting dendrimers; type: cell-based; details: N:P=0.6:1, DOTMA:DOPE w/w 10:1, 24 hours post-transfection; FIG. 9
Description: Cell lines, transfection reagents and mRNA. C2c12 cells were maintained in DMEM medium with 10% (v/v) FCS and 1% (v/v) L-glutamine in a humidified atmosphere in 5% CO2, and 37° C. The Alexa Fluor 488 tagged mRNA, expressing an eGFP, was purchased from RiboPro. The mRNA either expressing an eGFP or firefly luciferase was purchased from Trilink. DOTMA:DOPE, 1:1 (w/w) were obtained from Invitrogen or Encapsula NanoSciences LLC.
Transfection procedure. 24 hours before transfection, C2c12 cells were seeded in 96well plates in order to reach 70% confluence. mRNA transfection complexes were formed by mixing mRNA with the dendrimers in 25 mM HEPES buffer, then with DOTMA:DOPE in 25 mM HEPES buffer at 25° C. The transfection complexes were then overlaid to the cells in full growth medium. The cells were harvested 4 hours after transfection for FACS analysis or 24 hours post transfection for reporter genes assays.
Two variants (NTX2 and NTX3) of the peptide dendrimer GSCG1,2-RL, 3-LR ((LR)8(KRL)4(KRL)2KGSC-NH2) were made which include the ASSLNIA (SEQ ID NO:1) muscle targeting peptide. Transfection of muscle cells with GSCG1,2-RL, 3-LR, NTX2 ((LR)8(KRL)4(KRL)2[…](Acp)-NH2) or NTX3 ((LR)8(KRL)4(KRL)2[…](Acp)-NH2) was performed using eGFP mRNA and transfection efficiency was assayed using either flow cytometry or the transgene expression assay. […]
Transgene expression assay: The cells were washed twice with PBS and incubated with 50 ul of 1× M-PER lysis buffer (Thermo 11874111). […] 40 ul of lysate from each well was transferred to all black 96 well plates for quantification of eGFP relative fluorescence unit (RFU), absorbance at 535 nm, using Molecular devices SpectraMax iD5.
Protein content determination: The protein content of each cell lysate was determined by mixing the lysate (25 μL) with Pierce™ BCA Protein Assay Kit (200 ul, Thermo Scientific). After 30 minutes of 37° C. incubation in at dark, absorbance was measured at 562 nm with Molecular devices SpectraMax iD5 and converted to protein concentration using a BSA standard curve. […]

Row | Substance | increase in eGFP expression compared to GSCG1,2-RL, 3-LR
1 | (LR)8(KRL)4(KRL)2KGSCGAASSLNIA(Acp)-NH2 [NTX2] | two-fold

same assay, conditions: N:P=0.6:1, DOTMA:DOPE w/w 10:1, 24 hours post-transfection; FIG. 10

Row | Substance | increase in eGFP expression compared to RHCG1-RL, 2-LR
2 | (LR)4(KRL)2KRHCGAASSLNIA-(Acp)-NH2 [NTX5] | ˜two-fold

system: not listed separately; test: Dynamic light scattering: hydrodynamic size and polydispersity index (PDI) of nanoparticles; type: physicochemical; details: GSCG1,2-RHL N:P 0.6:1, DOTMA/DOPE nanoparticles coated at 2.06:1 (dendrimer to mRNA)
Description: (§1) The hydrodynamic size was measured using the dynamic light scattering (DLS) technique. DLS is a very sensitive, non-invasive method to measure size and size distribution of nanoparticles in a liquid. […] Analysing these intensity fluctuations allows us to calculate the velocity of the Brownian motion. The size of the nanoparticles can be determined by using the Stokes-Einstein relationship. With the latest technology, it can measure nanoparticles smaller than 1 nm.
PDI is used to estimate the average uniformity of a particle solution, The method of cumulants is a standard technique for analysing DLS data on sample polydispersity. PDI is a number calculated from a 2 parameter fit to the correlation data (the cumulants analysis). The cumulants analysis is used to evaluate the autocorrelation function generated by a DLS experiment. The calculation is defined in ISO 13321 and ISO 22412. PDI values greater than 0.7 indicate that the sample has a very broad size distribution and is not suitable for the DLS technique. The calculations for these parameters are defined in the ISO standard document 13321:1996 E and ISO 22412:2008.
as §1, with “Size, zeta potential and polydispersity index (PDI) measurement: The hydrodynamic” for “The hydrodynamic”, “scattering (DLS) technique using the Zetasizer Advance Series—Pro (Malvern Panalytical Ltd, Malvern, UK) according to the manufacturer's instructions. DLS is” for “scattering (DLS) technique. DLS is”
The data obtained with DLS measurements can also be used to calculate the PDI of particle in solution. PDI is used to estimate the average uniformity of a particle solution. The method of cumulants is a standard technique for analysing DLS data on sample polydispersity. PDI is a number calculated from a 2 parameter fit to the correlation data (the cumulants analysis). The cumulants analysis is used to evaluate the autocorrelation function generated by a DLS experiment. The calculation is defined in ISO 13321 and ISO 22412. PDI values greater than 0.7 indicate that the sample has a very broad size distribution and is not suitable for the DLS technique. The calculations for these parameters are defined in the ISO standard document 13321:1996 E and ISO 22412:2008.
To measure the size and PDI, the samples were diluted 16× in 25 mM HEPES buffer (5 μl sample+75 μl buffer). Parameters: reference material: polystyrene latex, dispersant: water, 25° C. The PDI measurements were measured in nanoparticles comprising a dendrimer:nucleic acid NP ratio of 8:1.

Row | Substance | PDI | size
3 | (Ac-EEEE)2KGSGGSGGSC-NH2 | 0.12 | 166 nm

same assay, conditions: GSCG1,2-RHL N:P 0.6:1, DOTMA/DOPE nanoparticles coated at 2.72:1 (dendrimer to mRNA)

Row | Substance | PDI | size
4 | (Ac-EEEE)2KGSGGSGGSC-NH2 | 0.13 | 169 nm

same assay, conditions: GSCG1,2-RHL N:P 0.6:1, DOTMA:DOPE nanoparticles; coating mol ratio 2.06 to mRNA P where coated

Row | Substance | Pdl | Z-average diameter
5 | (Ac-EEEE)2KGSGGSGGSACDCRGDCFCG-NH2 (Disulfide bridges: C1-C4, C2-C3) | 0.20 | 191 nm
6 | (Ac-EEEE)2KGSGGSGGSC-NH2 | 0.16 | 165 nm

same assay, conditions: Table 7, first generation dendrimers for mixed dendrimer nanoparticles

Row | Substance | PDI
7 | (RLR)2KRHC-NH2 [RHCG1-RLR] | 0.766

same assay, conditions: peptide dendrimer, lipid and mRNA complexes; N:P 8:1, DOTMA/DOPE w/w 10:1 to mRNA

Row | Substance | Polydispersity Index (PDI)
8 | (RLR)4(KRLR)2KRHC-NH2 [RHCG1,2-RLR] | 0.214
9 | (LR)8(KLR)4(KLR)2KGSC-NH2 [GSCG1,2,3-LR] | 0.272
10 | (LR)2KRHC-NH2 [RHCG1-LR] | 0.577
11 | (R)8(KR)4(KR)2KRHC-NH2 [RHCG1,2,3-R] | 0.396
12 | (MR)8(KRC)4(KRC)2KGSC-NH2 [GSCG1-RC, 2-RC, 3-MR] | 0.19
13 | (WR)8(KRM)4(KRF)2KGSC-NH2 [GSCG1-RF, 2-RM, 3-WR] | 0.277
14 | (LR)8(DabRL)4(DabRL)2DabGSC-NH2 | 0.286
15 | (LR)8(KRL)4(KRL)2KGSCRHCRFWRYM-NH2 [LinearG1,2-RL, 3-LR] | 0.289
16 | (LR)8(KR)4(KRLRL)2KRHC-NH2 [RHCG1-RLRL, 2-R, 3-LR] | 0.37
17 | (R)8(KRL)4(KRLR)2KRHC-NH2 [RHCG1-RLR, 2-RL, 3-R] | 0.429
18 | (LR)8(KR)4(KRLR)2KRHC-NH2 [RHCG1-RLR, 2-R, 3-LR] | 0.439
19 | (RLR)8(KRLR)4(KRLR)2KRHC-NH2 [RHCG1,2,3-RLR] | 0.299
20 | (LR)8(KRL)4(KRE)2KGSC-NH2 [GSCG1-RE, 2-RL, 3-LR] | 0.158
21 | (R)4(KR)2KRHC-NH2 [RHCG1,2-R] | 0.252
22 | (LRLR)8(KLRLR)4(KLRLR)2KGSC-NH2 [GSCG1,2,3-LRLR] | 0.287
23 | (RL)8(KLR)4(KLR)2KGSC-NH2 [GSCG1,2-LR, 3-RL] | 0.242

Row | Substance | Polydispersity Index (PDI)
24 | (RL)8(KRL)4(KLR)2KGSC-NH2 [GSCG1-LR, 2,3-RL] | 0.417
25 | (HK)8(KKH)4(KKL)2KGSC-NH2 [GSCG1-KL, 2-KH, 3-HK] | 0.126
26 | (FR)8(KRQ)4(KRW)2KGSC-NH2 [GSCG1-RW, 2-RQ, 3-FR] | 0.452
27 | (lR)8(KrL)4(KRL)2KGSC-NH2 [GSCG1-Rl, 2-rL, 3-lR] | 0.241
28 | (RR)4(KLL)2KGSC-NH2 [GSCG1-LL, 2-RR] | 0.087
29 | (LR)8(KRL)4(KRL)2KRHC-NH2 [RHCG1,2-RL, 3-LR] | 0.363
30 | (LR)8(KRL)4(KRL)2KA-NH2 [AG1,2-RL, 3-LR] | 0.184
31 | (LR)8(KRL)4(KRL)2KYM-NH2 [YMG1,2-RL, 3-LR] | 0.213
32 | (BR)8(KRB)4(KRX)2KGSC-NH2 [GSCG1-RX, 2-RB, 3-BR] | 0.403
33 | (LR)8(KRL)4(KRL)2KRYM-NH2 [RYMG1,2-RL, 3-LR] | 0.257
34 | (LR)8(KRL)4(KRL)2KRFW-NH2 [RFWG1,2-RL, 3-LR] | 0.401
35 | (YR)8(KRT)4(KRQ)2KGSC-NH2 [GSCG1-RQ, 2-RT, 3-YR] | 0.409
36 | (lr)8(krl)4(krl)2kgsc-NH2 | 0.246
37 | (LRLR)4(KLRLR)2KGSC-NH2 [GSCG1,2-LRLR] | 0.189
38 | (QR)8(KRT)4(KRY)2KGSC-NH2 [GSCG1-RY, 2-RT, 3-QR] | 0.178

system: not listed separately; test: Zeta potential of nanoparticles (electrophoretic light scattering); type: physicochemical; details: GSCG1,2-RHL N:P 0.6:1, DOTMA/DOPE nanoparticles coated at 2.06:1 (dendrimer to mRNA)
From the text: Zeta potential is a measurement of the magnitude of the electrostatic or charge repulsion/attraction between particles. This can be determined by analysing particle mobility and charge (Zeta potential) using the Electrophoretic Light Scattering (ELS) technique.
Zeta potential is a measurement of the magnitude of the electrostatic or charge repulsion/attraction between particles. This can be determined by analysing particle mobility and charge (Zeta potential) using the Electrophoretic Light Scattering (ELS) technique. […] Parameters: reference material: polystyrene latex, dispersant: water, 25° C. The measurements of the zeta potential were carried out using the Zetasizer Advance Series—Pro (Malvern Panalytical Ltd, Malvern, UK) according to the manufacturer's instructions.

Row | Substance | zeta potential
39 | (Ac-EEEE)2KGSGGSGGSC-NH2 | ~33.2 mV

same assay, conditions: GSCG1,2-RHL N:P 0.6:1, DOTMA/DOPE nanoparticles coated at 2.72:1 (dendrimer to mRNA)

Row | Substance | zeta potential
40 | (Ac-EEEE)2KGSGGSGGSC-NH2 | ~35.4 mV

same assay, conditions: GSCG1,2-RHL N:P 0.6:1, DOTMA:DOPE nanoparticles; coating mol ratio 2.06 to mRNA P where coated

Row | Substance | zeta potential
41 | (Ac-EEEE)2KGSGGSGGSACDCRGDCFCG-NH2 (Disulfide bridges: C1-C4, C2-C3) | −31.9 mV
42 | (Ac-EEEE)2KGSGGSGGSC-NH2 | −29.3 mV
